EC50 and 2.1/2.2 data for 21 compounds are collected here from US11028051B2, “Tetrahydroquinoline-based bromodomain inhibitors” (St. Jude Children's Research Hospital, priority 2016, dated 2021).

What all share (experiment): competitive TR-FRET assay, BET-BD with acetylated peptide ligand
Assay type in all cases: binding
Background: In TR-FRET formats the signal depends on donor and acceptor labels being close together.

The target of assay [1] is BRD4-BD1 (Homo sapiens (Human), UniProt O60885). Particulars: BRD4-BD1; Table 11 additional modifications; read-out: 4.1 EC50. As to the method:
(§1) Inhibitor potency was determined using a competitive TR-FRET assay as detailed herein, measuring interaction of the respective BET-BD with an acetylated peptide ligand (Table 2).

Assay [2] addresses BRDT (Homo sapiens, UniProt Q58F21). Particulars: BRDT; Table 11 additional modifications; read-out: BRDT EC50. As to the method: as §1
Assay [3] has as its target BRD2-BD2 (Homo sapiens (Human), UniProt P25440). Conditions: for EC50: BRD2-BD2, Table 11 additional modifications, read-out: 2.2 EC50; for 2.1/2.2: ratio of BRD2-BD1 EC50 to BRD2-BD2 EC50 (selectivity). As for the experimental part:
as §1

The target of assay [4] is BRD2-BD1 (Homo sapiens (Human), UniProt P25440). Conditions: BRD2-BD1; Table 11 additional modifications; read-out: 2.1 EC50. As for the experimental part: as §1
BRD2-BD1, sequence (P25440 74-180): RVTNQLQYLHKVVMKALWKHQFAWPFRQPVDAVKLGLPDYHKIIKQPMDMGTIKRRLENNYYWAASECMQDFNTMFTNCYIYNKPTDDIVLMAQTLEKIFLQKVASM
Assay [5] deals with BRD4-BD2 (Homo sapiens (Human), UniProt O60885). Particulars: BRD4-BD2; Table 11 additional modifications; read-out: 4.2 EC50. As for the experimental part:
as §1

Assay [6] addresses BRD3-BD1 (Homo sapiens (Human), UniProt Q15059). Conditions: BRD3-BD1; Table 11 additional modifications; read-out: 3.1 EC50. As for the experimental part: as §1

The structures appear in SMILES notation. Some results are limits rather than exact numbers.

BRD3-BD1, sequence (Q15059 34-140): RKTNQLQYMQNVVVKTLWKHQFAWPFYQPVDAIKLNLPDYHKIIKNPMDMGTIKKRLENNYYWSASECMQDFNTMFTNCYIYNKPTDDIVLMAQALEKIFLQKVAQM
BRD2-BD2, sequence (P25440 344-453): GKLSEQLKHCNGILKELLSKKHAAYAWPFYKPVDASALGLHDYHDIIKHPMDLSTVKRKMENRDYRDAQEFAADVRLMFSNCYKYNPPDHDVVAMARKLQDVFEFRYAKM

For the compound `CC(=O)Nc1cccc(-c2ccc3c(c2)[C@H](N)C[C@H](C)N3C(C)=O)c1` [compound 9], the EC50 – broadly, the concentration needed to bring the measured effect to its halfway point – in assay [1] is 47 µM; in assay [2], 10 µM; in assay [3], 14 µM; in assay [4], 12 µM; in assay [5], 15 µM; in assay [6] it was 10 µM. The 2.1/2.2 in assay [3] stood at 0.86.

With `CC(=O)Nc1cccc(-c2ccc3c(c2)[C@H](Nc2cncnc2)C[C@H](C)N3C(C)=O)c1` [compound 16], the 50% effective concentration (EC50) in assay [1] was found to be 13 µM; in assay [2], 17 µM; in assay [3], 0.98 µM; in assay [4], 9.8 µM; in assay [5] it was 1.9 µM; in assay [6], 6.4 µM. Further, the 2.1/2.2 in assay [3] is 10.

For the compound `COc1cccc(N[C@@H]2C[C@H](C)N(C(C)=O)c3ccc(-c4cccc(NC(C)=O)c4)cc32)c1` [compound 21], the EC50 in assay [1] turned out to be 1.5 µM; in assay [2], 1.8 µM; in assay [3], 0.03 µM; in assay [4], 0.93 µM; in assay [5], 0.04 µM; in assay [6] it was 0.59 µM. Further, the 2.1/2.2 in assay [3] was found to be 31.

For `COC(=O)c1cccc(N[C@@H]2C[C@H](C)N(C(C)=O)c3ccc(-c4cccc(NC(C)=O)c4)cc32)c1` [compound 7], the EC50 in assay [1] turned out to be 4.8 µM; in assay [2], 10 µM; in assay [3], 0.08 µM; in assay [4] it was 81 µM; in assay [5], 81 µM; in assay [6] it was 1.6 µM. Also, in assay [3], the 2.1/2.2 was more than 1000.

Regarding `CC(=O)N1c2ccc(-c3cccc(NC(=O)OC(C)(C)C)c3)cc2[C@H](Nc2ccc(Cl)cc2)C[C@@H]1C` [compound 134], the EC50 in assay [1] came out at 21 µM; in assay [2] it was 10 µM; in assay [3], 0.59 µM; in assay [4], 21 µM; in assay [5], 0.9 µM; in assay [6], 10 µM. Besides, the 2.1/2.2 in assay [3] came to 36.

With `COc1ccc(N[C@@H]2C[C@H](C)N(C(C)=O)c3ccc(-c4cccc(NC(C)=O)c4)cc32)cc1` [compound 18], the EC50 in assay [1] is 2.3 µM; in assay [2] it was 2.6 µM; in assay [3] it was 0.11 µM; in assay [4] it was 1.9 µM; in assay [5], 0.08 µM; in assay [6], 1.5 µM. The 2.1/2.2 in assay [3] amounted to 4.8.

On to `CC(=O)Nc1cccc(-c2ccc3c(c2)[C@H](Nc2ccc4c(c2)COC4=O)C[C@H](C)N3C(C)=O)c1` [compound 12], for which the EC50 in assay [1] is 1.5 µM; in assay [2] it was 1.8 µM; in assay [3], 0.03 µM; in assay [4], 0.93 µM; in assay [5], 0.04 µM; in assay [6] it was 0.59 µM. Besides, in assay [3], the 2.1/2.2 turned out to be 31.

For the compound `CC(=O)Nc1cccc(-c2ccc3c(c2)[C@H](NC2CCCC2)C[C@H](C)N3C(C)=O)c1` [compound 38], the EC50 in assay [1] amounted to 6.8 µM; in assay [2] it was 11 µM; in assay [3] it was 2.4 µM; in assay [4] it was 5.5 µM; in assay [5], 2.6 µM; in assay [6], 3.7 µM. The 2.1/2.2 in assay [3] stood at 2.3.

For `CNCc1ccc(N[C@@H]2C[C@H](C)N(C(C)=O)c3ccc(-c4cccc(NC(C)=O)c4)cc32)cc1` [compound 23], the EC50 in assay [1] was found to be 1.5 µM; in assay [2], 2.1 µM; in assay [3], 0.1 µM; in assay [4], 2.3 µM; in assay [5], 0.32 µM; in assay [6], 0.71 µM. Also, the 2.1/2.2 in assay [3] is 23.

Turning to `CC(=O)Nc1cccc(-c2ccc3c(c2)[C@H](NC(=O)OC(C)C)C[C@H](C)N3C(C)=O)c1` [compound 1], the EC50 in assay [1] is 0.67 µM; in assay [2], 5.9 µM; in assay [3], 0.29 µM; in assay [4] it was 0.85 µM; in assay [5] it was 0.23 µM; in assay [6], 0.62 µM. The 2.1/2.2 in assay [3] is reported as 2.9.

On to `CC(=O)Nc1cccc(-c2ccc3c(c2)[C@H](Nc2cccc(OC(F)(F)F)c2)C[C@H](C)N3C(C)=O)c1` [compound 22], for which the EC50 in assay [1] came out at 27 µM; in assay [2], 10 µM; in assay [3] it was 0.79 µM; in assay [4] it was 26 µM; in assay [5] it was 1.9 µM; in assay [6], 10 µM. Besides, in assay [3], the 2.1/2.2 is given as 33.

As to `CC(=O)Nc1cccc(-c2ccc3c(c2)[C@H](Nc2ccc(OC(F)(F)F)cc2)C[C@H](C)N3C(C)=O)c1` [compound 132], the EC50 is 17 µM in assay [1]; 10 µM in assay [2]; 0.37 µM in assay [3]; 20 µM in assay [4]; 0.54 µM in assay [5]; 10 µM in assay [6]. Further, in assay [3], the 2.1/2.2 is recorded as 16.

With `CC(=O)Nc1cccc(-c2ccc3c(c2)[C@H](NC2CCOCC2)C[C@H](C)N3C(C)=O)c1` [compound 36], the EC50 in assay [1] stood at 2.4 µM; in assay [2], 7 µM; in assay [3], 3 µM; in assay [4] it was 3.2 µM; in assay [5], 5.4 µM; in assay [6], 1.4 µM. The 2.1/2.2 in assay [3] was found to be 1.1.

Consider `CC(=O)Nc1cccc(-c2ccc3c(c2)[C@H](Nc2ccc(N(C)C)cc2)C[C@H](C)N3C(C)=O)c1` [compound 118], for which the EC50 in assay [1] turned out to be 5.1 µM; in assay [2], 1.6 µM; in assay [3], 0.11 µM; in assay [4], 3.6 µM; in assay [5], 0.21 µM; in assay [6] it was 2.1 µM. Moreover, the 2.1/2.2 in assay [3] was 10.

With `CC(=O)Nc1cccc(-c2ccc3c(c2)[C@H](Nc2ccc([N+](=O)[O-])cc2)C[C@H](C)N3C(C)=O)c1` [compound 127], the EC50 was 2.9 µM in assay [1]; 4.1 µM in assay [2]; 0.11 µM in assay [3]; 2.3 µM in assay [4]; 0.06 µM in assay [5]; 1.2 µM in assay [6]. Further, the 2.1/2.2 in assay [3] stood at 17.

Consider `CC(=O)Nc1cccc(-c2ccc3c(c2)[C@H](NC2CCCCCC2)C[C@H](C)N3C(C)=O)c1` [compound 37], for which the EC50 was 1.5 µM in assay [1]; 2.8 µM in assay [2]; 0.62 µM in assay [3]; 2.4 µM in assay [4]; 0.54 µM in assay [5]; 1.2 µM in assay [6]. Further, the 2.1/2.2 in assay [3] is listed as 3.9.

Consider `CC(=O)Nc1cccc(-c2ccc3c(c2)[C@H](Nc2ccc4c(c2)OCO4)C[C@H](C)N3C(C)=O)c1` [compound 14], for which the EC50 in assay [1] is 2 µM; in assay [2] it was 2.6 µM; in assay [3], 0.09 µM; in assay [4], 1.8 µM; in assay [5] it was 0.06 µM; in assay [6], 1.19 µM. The 2.1/2.2 in assay [3] is reported as 20.

On to `CC(=O)Nc1cccc(-c2ccc3c(c2)[C@H](Nc2ccc(N(C)C(C)=O)cc2)C[C@H](C)N3C(C)=O)c1` [compound 11], for which the EC50 in assay [1] stood at 3.4 µM; in assay [2], 4.3 µM; in assay [3] it was 0.2 µM; in assay [4] it was 3.2 µM; in assay [5] it was 51 µM; in assay [6], 1.6 µM. Besides, the 2.1/2.2 in assay [3] was 16.

Regarding `CC(=O)N1c2ccc(-c3coc4ccccc34)cc2[C@H](NC(=O)OC(C)C)C[C@@H]1C` [compound 90], the EC50 came out at 8.7 µM in assay [1]; 14 µM in assay [2]; 3.5 µM in assay [3]; 11 µM in assay [4]; 56 µM in assay [5]; 3.4 µM in assay [6]. Moreover, in assay [3], the 2.1/2.2 came to 0.84.

On to `COC(=O)c1ccccc1N[C@@H]1C[C@H](C)N(C(C)=O)c2ccc(-c3cccc(NC(C)=O)c3)cc21` [compound 15], for which the EC50 in assay [1] came to 7 µM; in assay [2], 0.7 µM; in assay [3] it was 0.11 µM; in assay [4], 7 µM; in assay [5], 0.1 µM; in assay [6] it was 10 µM. The 2.1/2.2 in assay [3] is reported as 64.

In the case of `CC(=O)N1c2ccc(-c3cc4ccccc4[nH]3)cc2[C@H](NC(=O)OC(C)C)C[C@@H]1C` [compound 92], the EC50 in assay [1] was 1.3 µM; in assay [2] it was 3 µM; in assay [3] it was 1.4 µM; in assay [4], 1.7 µM; in assay [5] it was 1.3 µM; in assay [6], 0.41 µM. Also, the 2.1/2.2 in assay [3] is reported as 5.1.
